Values after ≈ are worked out from the molar mass of the structure shown. Read-outs that look alike come from different tables or passages of the source.
Columns and labels:
[1] = system: 60-resistant (60-r) isolates of E. coli W3110; test: microbe, parasite or virus in culture; type: cell-based, Escherichia coli; conditions: for MIC: Escherichia coli
Protocol: (§1) MIC was determined by broth microdilution. Single-colony cultures were grown to exponential phase (OD600 of 0.5) aerobically at 37 °C. In case of strains from the Keio collection, 50 µg ml^−1 kanamycin was supplemented to the media to ascertain a homogeneous population. The bacterial suspensions were diluted 100-fold in CAMHB and 50 µl was added to a twofold serial dilution series of test compounds (50 µl per well) in polypropylene 96-well microtitre plates to reach a volume of 100 µl. The plates were sealed with breathable membranes and incubated overnight at 37 °C with constant shaking (600 r.p.m.). The MIC was determined as the lowest concentration at which no visible bacterial growth was observed as compared with the inoculum controls from the median of a minimum of triplicates.
The plates were incubated at 37 °C and checked for growth after 24 and 48 h. […] Nine colonies with an increased MIC were selected for further analysis and stored as glycerol stocks.

[2] = system: E. coli BW25113 and single-gene knockouts; test: MIC on E. coli strains of the Keio collection; type: cell-based, Escherichia coli; conditions: for MIC: Escherichia coli
Protocol: as §1

[3] = system: clinical isolates of E. coli; test: MIC against clinical isolates and potentiation by 4 µM PMBN; type: cell-based, Escherichia coli; conditions: for MIC: Escherichia coli
Protocol: as §1, with “r.p.m.).” for “r.p.m.). The MIC was determined as the lowest concentration at which no visible bacterial growth was observed as compared with the inoculum controls from the median of a minimum of triplicates.”

K. pneumoniae ATCC 29665 = test: MIC by broth microdilution; type: cell-based, Klebsiella pneumoniae; conditions: Klebsiella pneumoniae
Method in brief: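 Exponential-phase cultures (OD600 0.5, 37 °C aerobic), diluted 100-fold in CAMHB, were added to twofold compound dilution series. Keio strains grown with 50 µg ml^−1 kanamycin. Plates incubated overnight at 37 °C, shaking at 600 r.p.m.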

[4] = target: T1, E. coli GyrA S97L/GyrB gyrase (Escherichia coli, UniProt P0AES4, S97L); test: Gyrase supercoiling inhibition, GyrA S97L variant; type: biochemical
T1 construct: represents the first full-length E. coli gyrase structure in complex with an intact DNA molecule; 10xHis; 2xStrep (Twin-Strep); made in house
Protocol: Of this stock solution, 27 µl was aliquoted for each reaction in 1.5 ml Eppendorf tubes and supplemented with 0.6 µl of the appropriate compound dilution or corresponding solvent with a final DMSO concentration of 2%. The reactions were started with 3 µl of enzyme (1 U for WT gyrase retrieved from Inspiralis Limited or 25–30 nM gyrase variants purified in house) in dilution buffer (50 mM Tris–HCl (pH 7.5), 100 mM KCl, 2 mM DTT, 1 mM EDTA and 50% (wt/vol) glycerol) for a final volume of 30 µl. Reactions were run at 37 °C for 30 min and stopped with the addition of 30 µl STEB buffer (40% (wt/vol) sucrose, 100 mM Tris–HCl pH 8, 100 mM EDTA, 0.5 mg ml^−1 bromophenol blue) and 30 µl of a chloroform:isoamyl alcohol solution (24:1 vol/vol). After brief vortexing and centrifugation at 2,300g for 1 min, 20 µl of the aqueous phase was loaded onto 1% (wt/vol) agarose gels in TAE (Tris–acetate […]) gel. The gels were run at 85 V for 2 h followed by staining (15 min) in 1 µg ml^−1 ethidium bromide and destaining (5–10 min) in water. DNA was visualized (602/50, UV Trans, auto optimal exposure) with a ChemiDoc MP (Bio-Rad Laboratories Inc., equipped with ImageLab Touch Software v2.0.0.27) and the percentage of supercoiled DNA relative to the total amount material per lane was determined with ImageLab 6.1 software (Bio-Rad Laboratories Inc.) or ImageJ[47] software. […]

[5] = BW25113, read-out: MIC E. coli BW25113, parent strain
[6] = E. coli 1075, fold change in MIC after 4 µM PMBN
[7] = E. coli 552059.1, fold change in MIC after 4 µM PMBN
[8] = E. coli 552059.1, with 4 µM PMBN
[9] = E. coli 552060.1, fold change in MIC after 4 µM PMBN
[10] = E. coli 552060.1, with 4 µM PMBN
[11] = E. coli MVAST0072, fold change in MIC after 4 µM PMBN
[12] = E. coli MVAST0072, with 4 µM PMBN
[13] = E. coli NCTC13463, fold change in MIC after 4 µM PMBN
[14] = E. coli NCTC13463, with 4 µM PMBN
[15] = E. coli NCTC13846, fold change in MIC after 4 µM PMBN
[16] = E. coli NCTC13846, with 4 µM PMBN
[17] = E. coli mcr-1, fold change in MIC after addition of 4 µM PMBN
[18] = E. coli 1075 (MDR), read-out: MIC
[19] = E. coli 552059.1, read-out: MIC
[20] = E. coli 552060.1, read-out: MIC
[21] = E. coli MVAST0072 (MDR), read-out: MIC
[22] = NCTC13463, E. coli NCTC13463 (ESBL), read-out: MIC
[23] = NCTC13846, E. coli NCTC13846 (MDR, mcr-1)
[24] = ATCC29665, broth microdilution, read-out: MIC K. pneumoniae ATCC 29665
[25] = ATCC29665, read-out: MIC K. pneumoniae ATCC 29665

O=S(=O)(NCCNCc1ccc(-c2ccc(F)nc2)cc1)c1cccc2cnccc12 [Compound 60]
MIC ([1]; E. coli W3110 60-r1): > 100 µM | MIC ([1]; E. coli W3110 60-r3): 100 µM (≈ 43.7 µg/mL) | MIC ([1]; E. coli W3110 60-r6): > 100 µM | increase in MIC in resistant colonies ([1]; all nine colonies): at least an eightfold increase in MIC | MIC [2, 5]: 6.25 µM (≈ 2.73 µg/mL) | FC [3, 6]: > 2 | MSC ([3]; E. coli 1075, with 4 µM PMBN): 25 µM | FC [3, 7]: 16 | MSC [3, 8]: 3.1 µM | FC [3, 9]: 16 | MSC [3, 10]: 3.1 µM | FC [3, 11]: 16 | MSC [3, 12]: 3.1 µM | FC [3, 13]: 8 | MSC [3, 14]: 1.6 µM | FC [3, 15]: > 2 | MSC [3, 16]: 25 µM | FC [3, 17]: 4 | MSC ([3]; E. coli mcr-1, with 4 µM PMBN): 12.5 µM | MIC [3, 18]: > 50 µM | MIC [3, 19]: 50 µM | MIC [3, 20]: 50 µM | MIC [3, 21]: 50 µM | MIC ([3]; E. coli mcr-1 (MCR)): 50 µM | MIC [3, 22]: 12.5 µM | MIC [3, 23]: > 50 µM | MIC (K. pneumoniae ATCC 29665; [24]): 25 µM (≈ 10.9 µg/mL) | MIC (K. pneumoniae ATCC 29665; [25]): 6.25 µM (≈ 2.73 µg/mL)

O=S(=O)(NC[C@@H]1CC[C@H](c2ccc(-c3ccc(F)cc3)cc2)N1)c1cccc2cnccc12 [Compound 101]
MIC ([1]; E. coli W3110 60-r1): > 50 µM | MIC ([1]; E. coli W3110 60-r3): 6.25 µM (≈ 2.88 µg/mL) | MIC ([1]; E. coli W3110 60-r6): 3.1 µM (≈ 1.43 µg/mL) | MIC [2, 5]: 1.6 µM (≈ 0.738 µg/mL) | FC [3, 6]: 8 | MSC ([3]; E. coli 1075, with 4 µM PMBN): 6.25 µM | FC [3, 7]: 16 | MSC [3, 8]: 0.8 µM | FC [3, 9]: 16 | MSC [3, 10]: 0.8 µM | FC [3, 11]: 16 | MSC [3, 12]: 0.8 µM | FC [3, 13]: 8 | MSC [3, 14]: 0.4 µM | FC [3, 15]: 4 | MSC [3, 16]: 3.1 µM | FC [3, 17]: 4 | MSC ([3]; E. coli mcr-1, with 4 µM PMBN): 3.1 µM | MIC [3, 18]: 50 µM | MIC [3, 19]: 12.5 µM | MIC [3, 20]: 12.5 µM | MIC [3, 21]: 12.5 µM | MIC [3, 22]: 3.1 µM | MIC [3, 23]: 12.5 µM | MIC (K. pneumoniae ATCC 29665; [24]): 3.1 µM (≈ 1.43 µg/mL)

O=S(=O)(NC[C@@H]1CC[C@H](c2ccc(-c3cccnc3)cc2)N1)c1cccc2cnccc12 [LEI-800]
MIC ([1]; E. coli W3110 60-r1): > 50 µM | MIC ([1]; E. coli W3110 60-r3): 12.5 µM (≈ 5.56 µg/mL) | MIC ([1]; E. coli W3110 60-r6): 12.5 µM (≈ 5.56 µg/mL) | supercoiling inhibition of GyrA S97L variant [4]: highly resistant | potency against ΔtolC efflux pump mutant [2]: No increase in potency | MIC ([2]; BW25113, JW3594 ΔrfaD): 0.4 µM (≈ 0.178 µg/mL) | MIC ([2]; BW25113, JW3596 ΔrfaC, LPS disruption (genetic)): 0.4 µM (≈ 0.178 µg/mL) | MIC ([2]; BW25113, JW3600 ΔrfaY): 1.6 µM (≈ 0.711 µg/mL) | MIC ([2]; BW25113, JW3602 ΔrfaI): 1.6 µM (≈ 0.711 µg/mL) | MIC ([2]; BW25113, JW3605 ΔrfaP): 0.4 µM (≈ 0.178 µg/mL) | MIC ([2]; BW25113, JW5503 ΔTolC): 3.1 µM (≈ 1.38 µg/mL) | MIC [2, 5]: 3.1 µM (≈ 1.38 µg/mL) | FC [3, 6]: > 4 | MSC ([3]; E. coli 1075, with 4 µM PMBN): 12.5 µM | FC [3, 7]: 32 | MSC [3, 8]: 0.78 µM | FC [3, 9]: 16 | MSC [3, 10]: 1.5 µM | FC [3, 11]: 16 | MSC [3, 12]: 1.5 µM | FC [3, 13]: 8 | MSC [3, 14]: 0.4 µM | FC [3, 15]: 4 | MSC [3, 16]: 12.5 µM | FC [3, 17]: 4 | MSC ([3]; E. coli mcr-1, with 4 µM PMBN): 6.25 µM | MIC ([3]; CIP-resistant isolate 965 (MDR)): 12.5 µM | MIC ([3]; CIP-resistant isolate 991, read-out: MIC): 25 µM | MIC ([3]; CIP-resistant isolate 1022 (ESBL), read-out: MIC): 25 µM | MIC ([3]; CIP-resistant isolate 1104 (MDR), read-out: MIC): 25 µM | MIC ([3]; CIP-resistant isolate 1146 (MDR)): 6.25 µM | MIC ([3]; CIP-resistant isolate 1175 (MDR), read-out: MIC): 25 µM | MIC ([3]; CIP-resistant isolate 1192 (MDR), read-out: MIC): 50 µM | MIC ([3]; CIP-resistant isolate 1201 (MDR)): 12.5 µM | MIC ([3]; CIP-resistant isolate 1233, read-out: MIC): 12.5 µM | MIC [3, 18]: > 50 µM | MIC [3, 19]: 25 µM | MIC [3, 20]: 25 µM | MIC [3, 21]: 25 µM | MIC [3, 22]: 3.1 µM | MIC [3, 23]: 50 µM | FC ([3]; isolate 965, fold-change in MIC): 16 | MSC ([3]; isolate 965, with 4 μM PMBN): 0.8 µM | FC ([3]; isolate 991, fold-change in MIC): 8 | MSC ([3]; isolate 991, with 4 μM PMBN): 3.1 µM | FC ([3]; isolate 1022, fold-change in MIC): 16 | MSC ([3]; isolate 1022, with 4 μM PMBN): 1.6 µM | FC ([3]; isolate 1104, fold-change in MIC): 16 | MSC ([3]; isolate 1104, with 4 μM PMBN): 1.6 µM | FC ([3]; isolate 1146, fold-change in MIC): 8 | MSC ([3]; isolate 1146, with 4 μM PMBN): 0.8 µM | FC ([3]; isolate 1175, fold-change in MIC): 8 | MSC ([3]; isolate 1175, with 4 μM PMBN): 3.1 µM | FC ([3]; isolate 1192, fold-change in MIC): 16 | MSC ([3]; isolate 1192, with 4 μM PMBN): 3.1 µM | FC ([3]; isolate 1201, fold-change in MIC): 8 | MSC ([3]; isolate 1201, with 4 μM PMBN): 1.6 µM | FC ([3]; isolate 1233, fold-change in MIC): 8 | MSC ([3]; isolate 1233, with 4 μM PMBN): 1.6 µM | MIC (K. pneumoniae ATCC 29665; [25]): 6.25 µM (≈ 2.78 µg/mL)
